The numbers were not newly measured in patent US20250161269A1 (Celmatix Inc., priority 2022, published 2025), which cites them from elsewhere.

Like-named read-outs stand apart in the source and are kept apart here.

In general, Ki refers to a dissociation constant, usually derived from enzyme kinetics or from competition with a known ligand.

For data set [1], the target named is T1, MT1 (Homo sapiens, UniProt P48039). The settings on record: cited from earlier work.
For data set [2], the target named is T2, MT2 (Homo sapiens, UniProt P49286).
T2 sequence (P49286 1-362): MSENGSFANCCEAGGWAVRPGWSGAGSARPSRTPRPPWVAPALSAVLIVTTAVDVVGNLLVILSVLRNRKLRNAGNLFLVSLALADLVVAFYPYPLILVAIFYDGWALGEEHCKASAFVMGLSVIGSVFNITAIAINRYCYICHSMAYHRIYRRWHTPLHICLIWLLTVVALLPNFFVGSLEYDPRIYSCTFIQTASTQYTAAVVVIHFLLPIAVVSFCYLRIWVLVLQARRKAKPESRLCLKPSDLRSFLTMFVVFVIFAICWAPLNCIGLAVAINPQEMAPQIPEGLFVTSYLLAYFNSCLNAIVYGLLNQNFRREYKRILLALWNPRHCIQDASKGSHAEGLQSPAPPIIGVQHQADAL
To be noted: cited from earlier work.

Data set [3] concerns the target T1, MT1. On the set-up: host or cells: CHO-K1 cells (as the earlier reading words it). To be noted: CHO-K1 cells; cited from earlier work.
In data set [4] the target is T2, MT2. On the set-up: host or cells: CHO-K1 cells (as the earlier reading words it). To be noted: CHO-K1 cells; cited from earlier work.
The target in data set [5] is T1, MT1. The settings on record: NIH-3T3 cells; cited from earlier work.
The conditions of data set [6]: in vivo; cited from earlier work.
The next data set deals with serum albumin (Homo sapiens, UniProt P02768). The settings on record: peripheral circulation; cited from earlier work.
Chain of serum albumin (P02768 25-609): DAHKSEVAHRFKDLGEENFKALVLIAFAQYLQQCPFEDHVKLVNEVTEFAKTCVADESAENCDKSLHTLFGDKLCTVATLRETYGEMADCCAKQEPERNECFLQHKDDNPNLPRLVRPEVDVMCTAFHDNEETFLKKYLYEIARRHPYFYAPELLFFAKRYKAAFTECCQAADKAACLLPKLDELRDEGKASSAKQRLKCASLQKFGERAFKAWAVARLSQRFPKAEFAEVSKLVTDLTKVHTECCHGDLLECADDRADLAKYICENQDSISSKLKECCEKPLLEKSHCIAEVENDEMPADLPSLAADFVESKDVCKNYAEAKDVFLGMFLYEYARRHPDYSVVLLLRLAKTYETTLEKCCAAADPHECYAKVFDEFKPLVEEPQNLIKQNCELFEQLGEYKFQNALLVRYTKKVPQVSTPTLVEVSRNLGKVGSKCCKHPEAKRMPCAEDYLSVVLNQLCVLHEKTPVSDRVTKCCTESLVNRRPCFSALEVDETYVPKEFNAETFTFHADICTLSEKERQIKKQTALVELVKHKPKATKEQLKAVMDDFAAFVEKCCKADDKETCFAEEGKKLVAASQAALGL
The next data set relates to PCOS patients. To be noted: PCOS patients or patients with metabolic disturbances; cited from earlier work.
Another data set concerns endometriosis patients. To be noted: cited from earlier work.
For another data set, the system named is endometriosis lesion. The settings on record: animals; cited from earlier work.
Another data set deals with PCOS animal models. The settings on record: cited from earlier work.
Data set [7] concerns chemotherapy tissue damage animal models. The settings on record: cited from earlier work.
For data set [8], the system named is macrophages (RAW264.7 or primary cells). The settings on record: macrophages treated with LPS; cited from earlier work.
In another data set the target is 5-HT2B receptor (Homo sapiens, UniProt P41595). To be noted: antagonist; cited from earlier work.
Chain of 5-HT2B receptor (P41595 whole entry): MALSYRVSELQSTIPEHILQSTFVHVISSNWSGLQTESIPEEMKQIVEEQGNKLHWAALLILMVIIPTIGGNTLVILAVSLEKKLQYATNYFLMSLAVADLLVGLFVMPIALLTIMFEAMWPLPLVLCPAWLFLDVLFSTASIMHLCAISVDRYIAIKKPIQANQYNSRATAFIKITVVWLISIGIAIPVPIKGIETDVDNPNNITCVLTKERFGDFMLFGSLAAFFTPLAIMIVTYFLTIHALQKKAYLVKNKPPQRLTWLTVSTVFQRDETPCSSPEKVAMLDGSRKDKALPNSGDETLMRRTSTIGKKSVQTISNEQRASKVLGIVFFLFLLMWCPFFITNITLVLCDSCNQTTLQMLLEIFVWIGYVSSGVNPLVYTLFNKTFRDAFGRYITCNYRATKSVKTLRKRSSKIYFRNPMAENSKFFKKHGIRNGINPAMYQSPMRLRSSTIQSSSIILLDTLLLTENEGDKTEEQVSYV

T1 sequence (P48039 whole entry): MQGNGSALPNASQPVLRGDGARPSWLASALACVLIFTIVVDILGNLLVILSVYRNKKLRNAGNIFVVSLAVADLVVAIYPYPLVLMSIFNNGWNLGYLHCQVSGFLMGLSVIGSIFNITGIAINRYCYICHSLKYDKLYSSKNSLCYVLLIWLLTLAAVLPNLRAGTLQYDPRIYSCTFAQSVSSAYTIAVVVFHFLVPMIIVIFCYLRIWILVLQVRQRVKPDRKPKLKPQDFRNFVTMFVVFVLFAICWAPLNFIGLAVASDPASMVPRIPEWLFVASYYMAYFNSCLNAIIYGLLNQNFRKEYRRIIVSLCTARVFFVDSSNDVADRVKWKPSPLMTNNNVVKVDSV

`COc1ccc2[nH]cc(CCNC(=O)c3cc(=O)cco3)c2c1` [Piromelatine]: the Ki is 0.022 nM on MT1 [1] and 0.034 nM on MT2 [2].

With `CCC(=O)NCC[C@@H]1CCc2ccc3c(c21)CCO3` [Ramelteon], the inhibitory constant (Ki) on MT2 [2] is 0.11 nM; at MT1 [3], 0.118 nM; on MT2 [4], 0.115 nM.

Regarding `COc1cc2c(C(C)CNC(C)=O)c[nH]c2cc1Cl` (stereo not drawn) [TIK-301, beta-methyl-6-chloromelatonin], the values for the Ki at MT1 [1] and at MT2 [2] were 0.081 nM and 0.042 nM, respectively.

`CCC(=O)NC[C@@H]1C[C@H]1c1cccc2c1CCO2` [Tasimelteon]: the Ki was 0.3 nM on MT1 [1], 0.304 nM at MT1 [5], 0.35 nM at MT1 [3] and 0.17 nM at MT2 [4].

As to `COc1ccc2[nH]cc(CCNC(C)=O)c2c1` [Melatonin, N-acetyl-5-methoxytryptamine], in [6], the “half-life inside the body” value was 20 to 40 min. For the same compound, the “bound to serum albumin” value on serum albumin was “approximately 70%”. Further, the “effect on hyperandrogenism, inflammation, ART outcome, and metabolic function” value in the data set on PCOS patients is given as “beneficial effect”. Also, the “effect on pelvic pain” value in the data set with endometriosis patients is on record as “beneficial effect”. Besides, the endometriosis lesion regression result in the data set on endometriosis lesion is “promotes endometriosis lesion regression”. The “metabolic and reproductive traits” value in the data set on PCOS animal models was “improve metabolic and reproductive traits”; in data set [7] it was “mitigate and protect metabolic and reproductive traits”. In [8], the “LPS-induced expression of pro-inflammatory molecules (e.g. TNFα, IL1B, IL6, IL8)” value is on record as “reduces their LPS-induced expression”.

Turning to `COc1ccc2cccc(CCNC(C)=O)c2c1` [Agomelatine], at 5-HT2B receptor, the Ki is 660 nM.
